The record followed here is patent US4866065A, “Imidazothienopyrimidines useful in psychopharmaceutical preparations” (A/S Ferrosan, priority 1987, dated 1989).

For the test, the system named is benzodiazepine receptors. The experiment in a line: in vivo displacement of 3H-flunitrazepam specific binding to brain benzodiazepine receptors in mice. The arrangement: species or system mice (female, NMR). The conditions noted are these: intraperitoneal, test substance 15 min before 3H-FNM i.v., sacrificed 20 min after 3H-FNM, forebrain. An excerpt: The pharmaceutical properties of the compounds of the invention can be illustrated by determining their capability for displacing radioactive labelled flunitrazepam from benzodiazepine receptors.
The displacement activity of the compounds of the invention may be found by determining the ED50 value. The ED50 value represents the dose (mg/kg) of a test substance which causes the specific binding of flunitrazepam to benzodiazepine receptors in a living brain to be reduced to 50% of the oontrol value.
Such an in vivo test is carried out as follows:
Principle. Twenty minutes after a dose of ^3 H-flunitrazepam (^3 H-FNM) (200 μCi/kg, i.v.) the amount of specific ^3 H-FNM binding to brain benzodiazepine receptors has reached its maximal value.
Test procedure. Suspensions of test substances (2 mg/ml) are prepared in 5% Duphasol-X (TM Duphar, castor oil-ethylene oxide derivative for emulsifying and solubilizing Oil and other water-insoluble substances) by sonification for 10 min using a Branson B15 microtip ultrasonifier (setting 7). Groups of three mice (female, NMR, 18-22 grams) are injected with the test substance at 100 mg/kg intraperitoneally. Fifteen minutes after test substance administration the mice are challenged with 4 μCi intravenously of ^3 H-FNM (70-90 Ci/mole) in 200 μl physiological saline. Twenty minutes after ^3 H-FNM administration mice are sacrificed by decapitation, the forebrains rapidly excised (within 30 sec) and homogenized in 12 ml of icecold 25 mM KH2 PO4, pH 7.1, using an Ultra-Turrax homogenizer fitted with an N 10 shaft. […] The amounts of radioactivity on the filters are determined by conventional scintillation counting. […]
Results. The ED50 value is determined from dose response curves. If only one dose of test substance is administered the ED50 value is calculated as follows, provided that the inhibition of specific binding is within the range of 25-75%: [formula] where Co is specific binding in controls and Cx is specific binding in mice treated with test substance.
Background: Displacement assays read how much labelled ligand stays bound in the presence of the test substance.
`Cn1c(=O)c2sccc2n2cnc(-c3nc(C4CC4)no3)c12` [Compound 8, 3-(3-cyclopropyl-1,2,4-oxadiazol-5-yl)-4,5-dihydro-4-methyl-5-oxo-imidazo[1,5-a]thieno[2,3-e]pyrimidine]: the “ED50 (dose reducing specific binding of flunitrazepam to benzodiazepine receptors in living brain to 50% of control)” value was 0.9 mg/kg.

In the case of `Cc1noc(-c2ncn3c4ccsc4c(=O)n(C)c23)n1` [Compound 10, 4,5-dihydro-4-methyl-3-(3-methyl-1,2,4-oxadiazol-5-yl)-5-oxo-imidazo[1,5-a]thieno[2,3-e]pyrimidine], the “ED50 (dose reducing specific binding of flunitrazepam to benzodiazepine receptors in living brain to 50% of control)” value is 1.8 mg/kg. In the case of `Cn1c(=O)c2sccc2n2cnc(-c3noc(C4CC4)n3)c12` [Compound 3, 3-(5-cyclopropyl-1,2,4-oxadiazol-3-yl)-4,5-dihydro-4-methyl-5-oxo-imidazo[1,5-a]thieno[2,3-e]pyrimidine] it was 0.6 mg/kg.
